From ChEMBL document CHEMBL5034027, “Synthesis and evaluation of stereoisomers of methylated catechin and epigallocatechin derivatives on modulating P-glycoprotein-mediated multidrug resistance in cancers” (Eur J Med Chem, 2021)
Each block holds one compound with its values, some of them ahead of it.

Experiments:
[1] = Reversal of P-glycoprotein mediated drug resistance in human LCC6MDR cells assessed as reversal of paclitaxel resistance measured after 5 days by Cell Titer-Glo luminescence assay; type: cell-based; details: 120 h
L929 = assay: Cytotoxicity against mouse L929 cells assessed as reduction in cell viability incubated for 72 hrs by MTS assay; type: cell-based; details: L929, 72 h
P-gp = assay: Selectivity index, ratio of IC50 for cytotoxicity against mouse L929 cells to EC50 for inhibition of P-gp in human LCC6MDR cells assessed as reversal of paclitaxel resistance; type: toxicity, cell-based; details: L929 cells (cytotoxicity IC50) and LCC6MDR cells (P-gp EC50), probe paclitaxel, read-out: Selectivity Index
[2] = target: T1, ATP-dependent translocase ABCB1 (Homo sapiens, UniProt P08183); assay: Inhibition of P-gp in human LCC6MDR cells assessed as intracellular DOX retention at 2 uM incubated for 60 mins by flow cytometry analysis relative to control; type: cell-based; parameters: scale not given: the % may be the effect or the level left; details: 1 h
T1 sequence (P08183 whole entry): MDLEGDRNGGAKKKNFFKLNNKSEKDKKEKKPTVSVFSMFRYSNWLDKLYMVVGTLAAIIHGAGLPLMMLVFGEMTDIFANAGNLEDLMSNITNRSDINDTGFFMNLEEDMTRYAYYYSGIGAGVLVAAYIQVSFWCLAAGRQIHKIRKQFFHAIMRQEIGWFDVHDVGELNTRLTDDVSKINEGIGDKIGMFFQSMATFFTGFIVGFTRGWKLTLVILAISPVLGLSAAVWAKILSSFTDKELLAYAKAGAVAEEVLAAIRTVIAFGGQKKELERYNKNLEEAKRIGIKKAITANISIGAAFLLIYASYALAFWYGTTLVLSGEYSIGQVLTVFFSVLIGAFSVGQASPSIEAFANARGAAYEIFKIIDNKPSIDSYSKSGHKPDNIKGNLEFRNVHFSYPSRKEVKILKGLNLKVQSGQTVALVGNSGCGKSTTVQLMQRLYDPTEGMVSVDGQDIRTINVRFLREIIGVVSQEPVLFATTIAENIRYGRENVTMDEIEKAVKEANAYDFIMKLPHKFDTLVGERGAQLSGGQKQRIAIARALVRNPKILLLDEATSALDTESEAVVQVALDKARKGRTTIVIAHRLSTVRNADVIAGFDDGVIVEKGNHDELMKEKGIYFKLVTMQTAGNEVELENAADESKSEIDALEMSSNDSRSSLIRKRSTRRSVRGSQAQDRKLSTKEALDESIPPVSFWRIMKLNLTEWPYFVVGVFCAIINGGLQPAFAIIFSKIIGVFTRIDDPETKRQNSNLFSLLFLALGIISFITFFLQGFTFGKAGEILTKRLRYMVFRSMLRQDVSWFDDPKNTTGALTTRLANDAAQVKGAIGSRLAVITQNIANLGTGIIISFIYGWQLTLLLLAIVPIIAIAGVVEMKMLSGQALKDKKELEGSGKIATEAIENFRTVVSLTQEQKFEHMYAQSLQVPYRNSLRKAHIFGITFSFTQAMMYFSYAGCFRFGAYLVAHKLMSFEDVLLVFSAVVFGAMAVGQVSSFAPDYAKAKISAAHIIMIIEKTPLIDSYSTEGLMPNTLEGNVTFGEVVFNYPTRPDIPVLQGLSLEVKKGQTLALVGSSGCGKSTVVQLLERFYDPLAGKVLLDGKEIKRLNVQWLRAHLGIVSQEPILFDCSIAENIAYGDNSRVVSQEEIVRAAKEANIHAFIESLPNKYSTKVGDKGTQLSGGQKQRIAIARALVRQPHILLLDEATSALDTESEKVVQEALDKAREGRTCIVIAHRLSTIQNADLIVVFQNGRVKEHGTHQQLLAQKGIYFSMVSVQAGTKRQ

[3] = target: T1, ATP-dependent translocase ABCB1; assay: Inhibition of P-gp in human LCC6MDR cells assessed as intracellular DOX retention at 2 uM incubated for 120 mins by flow cytometry analysis relative to control; type: cell-based; parameters: scale not given: the % may be the effect or the level left; details: 2 h
[4] = target: T1, ATP-dependent translocase ABCB1; assay: Inhibition of P-gp in human LCC6MDR cells assessed as intracellular DOX retention at 2 uM incubated for 90 mins by flow cytometry analysis relative to control; type: cell-based; parameters: scale not given: the % may be the effect or the level left
[5] = Reversal of P-glycoprotein mediated drug resistance in human LCC6MDR cells assessed as reversal of Dox resistance measured after 5 days by Cell Titer-Glo luminescence assay; details: 120 h

SMILES: COc1cc(OC)c2c(c1)O[C@@H](c1cc(OC)c(OC)c(OC)c1)[C@H](OC(=O)c1ccc(F)c(NC(=O)c3cc(OC)c(OC)c(OC)c3)c1)C2
EC50 [1]: 0.135 µM | IC50 (L929): > 100 µM | selectivity ratio (P-gp): > 741

SMILES: COc1cc(OC)c2c(c1)O[C@H](c1cc(OC)c(OC)c(OC)c1)[C@@H](OC(=O)c1ccc(F)c(NC(=O)c3ccc(OC)c(OC)c3)c1)C2
EC50 [1]: 0.171 µM

Activity [2]: 87% | Activity [3]: 90% | Activity [4]: 89%
SMILES: COc1cc(OC)c2c(c1)O[C@H](c1ccc(OC)c(OC)c1)[C@@H](OC(=O)c1ccc(F)c(NC(=O)c3cc(OC)c(OC)c(OC)c3)c1)C2

SMILES: COc1cc(OC)c2c(c1)O[C@H](c1ccc(OC)c(OC)c1)[C@@H](OC(=O)c1ccc(F)c(NC(=O)/C=C/c3cc(OC)c(OC)c(OC)c3)c1)C2
EC50 [1]: 0.177 µM | IC50 (L929): > 100 µM | selectivity ratio (P-gp): > 563

SMILES: O=C(O[C@@H]1Cc2c(O)cc(O)cc2O[C@@H]1c1cc(O)c(O)c(O)c1)c1cc(O)c(O)c(O)c1 [EPIGALOCATECHIN GALLATE]
EC50 [1]: > 1 µM

SMILES: COc1cc(OC)c2c(c1)O[C@H](c1cc(OC)c(OC)c(OC)c1)[C@H](OC(=O)c1ccc(F)c(NC(=O)c3cc(OC)c(OC)c(OC)c3)c1)C2
EC50 [1]: 0.214 µM

SMILES: COc1cc(OC)c2c(c1)O[C@H](c1cc(OC)c(OC)c(OC)c1)[C@@H](OC(=O)c1ccc(F)c(NC(=O)c3cc(OC)c(OC)c(OC)c3)c1)C2
EC50 [1]: 0.14 µM

SMILES: COc1ccc(CCN(C)CCCC(C#N)(c2ccc(OC)c(OC)c2)C(C)C)cc1OC (stereo not given)
EC50 [5]: 0.254 µM

SMILES: COc1cc(OC)c2c(c1)O[C@H](c1cc(OC)c(OC)c(OC)c1)[C@H](OC(=O)c1ccc(F)c(NC(=O)c3ccc(OC)c(OC)c3)c1)C2
EC50 [1]: 0.159 µM
